The results in this text go back to ChEMBL document CHEMBL1152941, “Isocoumarin glucosides from the scale insect fungus Torrubiella tenuis BCC 12732” (J Nat Prod, 2009).

In brackets after ≈: the same amount, converted by molar mass. Activity calls are given as the source filed them. The rule behind the calls is not given here.

The test system of one assay is Plasmodium falciparum. Nature of the assay: Antimalarial activity against Plasmodium falciparum K1 by microculture radioisotope technique. The assay is classed as functional, organism-based.
A further assay has as its system Human alphaherpesvirus 1. Nature of the assay: Antiviral activity against HSV1 by green fluorescent protein microplate assay. In kind it is functional, organism-based.
Assay [1] concerns Mycobacterium tuberculosis. Put plainly: Antitubercular activity against Mycobacterium tuberculosis H37Ra by green fluorescent protein microplate assay. In kind it is functional.
The next assay deals with KB. Nature of the assay: Cytotoxicity against human KB cells by resazurin microplate assay. In kind it is functional, cell-based. On the technique in general: The colour change of resazurin is a common sign of viable cells or microbes.
The next assay has as its system MCF7. Put plainly: Cytotoxicity against human MCF7 cells by resazurin microplate assay. In kind it is functional, cell-based.
A further assay concerns NCI-H187. Put plainly: Cytotoxicity against human NCI-H187 cells by resazurin microplate assay. The assay is classed as functional, cell-based.
In a further assay the test system is Vero. Nature of the assay: Cytotoxicity against african green monkey Vero cells by green fluorescent protein microplate assay. In kind it is cell-based. To be noted: Chlorocebus sabaeus.
Where [2] appears, read: Human alphaherpesvirus 1, read-out: IC50.

Consider `C[C@H]1[C@@H](O)O[C@@H]2O[C@@]3(C)CC[C@H]4[C@H](C)CC[C@@H]1[C@@]24OO3` [ARTENIMOL], for which the concentration for half-maximal inhibition (IC50) – broadly, the concentration needed to halve the response being measured – with Plasmodium falciparum turned out to be 0.0011 µg/mL (≈ 0.00387 µM).
With `CO[C@H]1[C@H](O)[C@@H](O)[C@H](Oc2cc(O)c3c(=O)oc(CO)cc3c2)O[C@@H]1CO`, the result with Plasmodium falciparum, in the assay on KB, in the assay with MCF7 and in the assay on NCI-H187 was inactive. The IC50 result with Human alphaherpesvirus 1 is on record as “Not Active”. For the same molecule, the MIC (commonly the lowest concentration that inhibits growth of the organism) in assay [1] was “inactive”.
In assay [1], `NNC(=O)c1ccncc1` [ISONIAZID] returned an MIC of 0.023 µg/mL (≈ 0.168 µM).
As for `Cc1cc2cc(O)cc(O)c2c(=O)o1`, the outcome with Plasmodium falciparum, in the assay on KB and with NCI-H187 was inactive. In addition, the IC50 entry in the assay on Human alphaherpesvirus 1 was “Not Active”. Further, the MIC result in assay [1] is “inactive”.
With `CO[C@H]1[C@H](O)[C@@H](O)[C@H](Oc2cc(O)c3c(=O)oc(C)cc3c2)O[C@@H]1CO`, the result with Plasmodium falciparum, in the assay with KB and in the assay with NCI-H187 was inactive. The IC50 entry in the assay with Human alphaherpesvirus 1 is listed as “Not Active”. In addition, in assay [1], the MIC result was “inactive”.
For the molecule `Nc1nc2c(ncn2COCCO)c(=O)[nH]1` [ACYCLOVIR], the IC50 with Human alphaherpesvirus 1 (setting [2]) was found to be 6.86 µg/mL (≈ 30.5 µM).
`CO[C@H]1[C@H](O)[C@@H](O)[C@H](OCc2cc3cc(O)cc(O)c3c(=O)o2)O[C@@H]1CO`: the result in the assay with Plasmodium falciparum, in the assay with KB and with NCI-H187 was inactive. Further, the IC50 entry in the assay with Human alphaherpesvirus 1 was “Not Active”. For the same molecule, the MIC result in assay [1] is “inactive”.
As to `O=c1oc(CO)cc2cc(O)cc(O)c12`, the IC50 in the assay with Human alphaherpesvirus 1 (setting [2]) came out at 50 µg/mL (≈ 240 µM). This molecule showed an MIC in assay [1] of 25 µg/mL (≈ 120 µM). Further, in the assay on NCI-H187, the result was inactive.
Turning to `COc1cccc2c1C(=O)c1c(O)c3c(c(O)c1C2=O)C[C@@](O)(C(=O)CO)C[C@@H]3O[C@H]1C[C@H](N)[C@H](O)[C@H](C)O1` [DOXORUBICIN], the IC50 in the assay with KB was 0.144 µg/mL (≈ 0.265 µM); in the assay with MCF7, 0.899 µg/mL (≈ 1.65 µM); with NCI-H187 it was 0.058 µg/mL (≈ 0.107 µM).
In the assay on Vero, `Cc1c2ccncc2c(C)c2c1[nH]c1ccccc12` [ELLIPTECINE] registered an IC50 of 1.16 µg/mL (≈ 4.71 µM).
